# From article PMC8865125, “Isocoumarins: a new class of selective carbonic anhydrase IX and XII inhibitors” (Journal of Enzyme Inhibition and Medicinal Chemistry, 2022)
# Where two headings read alike, the source gives them in different places.
# How the values were obtained:
# Assay in all cases: stopped-flow CO2 hydrase assay
# Type in all cases: biochemical
# hCA I = target: T1, hCA I (Homo sapiens, UniProt P00915); details: read-out: KI (μM)^a^,b / hCA I
# T1 construct: gene CA1; recombinant
# T1 sequence (P00915 2-261): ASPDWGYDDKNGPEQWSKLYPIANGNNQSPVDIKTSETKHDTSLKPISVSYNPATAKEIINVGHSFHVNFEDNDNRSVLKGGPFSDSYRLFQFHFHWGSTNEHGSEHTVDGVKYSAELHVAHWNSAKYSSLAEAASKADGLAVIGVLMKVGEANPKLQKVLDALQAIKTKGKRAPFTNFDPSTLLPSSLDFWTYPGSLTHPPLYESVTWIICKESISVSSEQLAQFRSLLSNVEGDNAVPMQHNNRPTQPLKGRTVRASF
# From the text: stopped-flow CO2 hydrase assay on hCA I
# hCA XII [1] = target: T2, hCA XII (Homo sapiens, UniProt O43570); details: read-out: KI (μM)^a^,b / hCA XII
# T2 construct: gene CA12; recombinant
# T2 sequence (O43570 25-354 limits assumed): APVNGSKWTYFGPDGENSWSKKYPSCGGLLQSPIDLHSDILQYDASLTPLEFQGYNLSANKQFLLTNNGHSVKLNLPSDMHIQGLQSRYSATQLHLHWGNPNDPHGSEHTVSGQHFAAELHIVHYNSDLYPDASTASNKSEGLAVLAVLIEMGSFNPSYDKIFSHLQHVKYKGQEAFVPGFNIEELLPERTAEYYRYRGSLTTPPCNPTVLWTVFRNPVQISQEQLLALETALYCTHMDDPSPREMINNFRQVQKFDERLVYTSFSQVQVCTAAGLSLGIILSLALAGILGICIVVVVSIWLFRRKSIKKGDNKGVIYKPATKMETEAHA
# From the text: stopped-flow CO2 hydrase assay on hCA XII
# hCA II = target: T3, hCA II (Homo sapiens, UniProt P00918); details: read-out: KI (μM)^a^,b / hCA I
# T3 construct: gene CA2; recombinant
# hCA IX [2] = target: T4, hCA IX (Homo sapiens, UniProt Q16790); details: read-out: KI (μM)^a^,b / hCA IX
# T4 construct: gene CA9; recombinant
# From the text: stopped-flow CO2 hydrase assay on hCA IX
# hCA IX [3] = target: T4, hCA IX; details: read-out: KI (μM)^a^,b / hCA I
# hCA XII [4] = target: T2, hCA XII; details: read-out: KI (μM)^a^,b / hCA I
Compound,Ki (hCA I) [µM],Ki (hCA XII [1]) [µM],Ki (hCA II) [µM],Ki (hCA IX [2]) [µM],Ki (hCA IX [3]) [µM],Ki (hCA XII [4]) [µM]
"Cc1c(-c2nn(-c3ccccc3)cc2C=O)oc(=O)c2ccccc12 [X9, 3–(4-methyl-1-oxo-1H-isochromen-3-yl)-1-phenyl-1H-pyrazole-4-carbaldehyde]",> 100,8.1,> 100,8.9,–,–
"Cc1c(-c2nn(-c3ccccc3)cc2C=C2C(=O)NC(=O)NC2=O)oc(=O)c2ccccc12 [X14, 5-((3–(4-methyl-1-oxo-1H-isochromen-3-yl)-1-phenyl-1H-pyrazol-4-yl)methylene) pyrimidine-2,4,6(1H,3H,5H)-trione]",> 100,66.5,> 100,54.6,–,–
"CC(=NNc1ccc(Cl)cc1)c1cc2ccccc2c(=O)o1 [X2, 3–(1-(2–(4-chlorophenyl) hydrazono)ethyl)-1H-isochromen-1-one]",> 100,4.6,> 100,3.5,–,–
"O=C1NC(=O)C(=Cc2cn(-c3ccc(Cl)cc3)nc2-c2cc3ccccc3c(=O)o2)C(=O)N1 [X12, 5-((1–(4-chlorophenyl)-3–(1-oxo-1H-isochromen-3-yl)-1H-pyrazol-4-yl)methylene) pyrimidine-2,4,6(1H,3H,5H)-trione]",> 100,–,> 100,–,> 100,> 100
"O=Cc1cn(-c2ccccc2)nc1-c1cc2ccccc2c(=O)o1 [X6, 3–(1-oxo-1H-isochromen-3-yl)-1-phenyl-1H-pyrazole-4-carbaldehyde]",> 100,6.5,> 100,7.1,–,–
"N#Cc1ccc(-n2cc(C=C3C(=O)NC(=S)NC3=O)c(-c3cc4ccccc4c(=O)o3)n2)cc1 [X18, 4–(4-((4,6-dioxo-2-thioxotetrahydropyrimidin-5(2H)-ylidene)methyl)-3–(1-oxo-1H-isochromen-3-yl)-1H-pyrazol-1-yl) benzonitrile]",> 100,53.4,> 100,78.9,–,–
"Cc1c(-c2nn(-c3ccc(Cl)cc3)cc2C=C2C(=O)NC(=S)NC2=O)oc(=O)c2ccccc12 [X20, 5-((1–(4-chlorophenyl)-3–(4-methyl-1-oxo-1H-isochromen-3-yl)-1H-pyrazol-4-yl)methylene)-2-thioxodihydropyrimidine-4,6(1H,5H)-dione]",> 100,–,> 100,–,> 100,> 100
"Cc1c(-c2nn(-c3ccc(Cl)cc3)cc2C=O)oc(=O)c2ccccc12 [X10, 1–(4-chlorophenyl)-3–(4-methyl-1-oxo-1H-isochromen-3-yl)-1H-pyrazole-4-carbaldehyde]",> 100,13.4,> 100,8.1,–,–
"N#Cc1ccc(-n2cc(C=C3C(=O)NC(=O)NC3=O)c(-c3cc4ccccc4c(=O)o3)n2)cc1 [X13, 4–(3-(1-oxo-1H-isochromen-3-yl)-4-((2,4,6-trioxotetrahydropyrimidin-5(2H)-ylidene)methyl)-1H-pyrazol-1-yl) benzonitrile]",> 100,36.2,> 100,62.4,–,–
"O=Cc1cn(-c2ccc(Cl)cc2)nc1-c1cc2ccccc2c(=O)o1 [X7, 1–(4-chlorophenyl)-3–(1-oxo-1H-isochromen-3-yl)-1H-pyrazole-4-carbaldehyde]",> 100,11.6,> 100,6.2,–,–
"Cc1c(-c2nn(-c3ccc(Cl)cc3)cc2C=C2C(=O)NC(=O)NC2=O)oc(=O)c2ccccc12 [X15, 5-((1–(4-chlorophenyl)-3–(4-methyl-1-oxo-1H-isochromen-3-yl)-1H-pyrazol-4-yl)methylene) pyrimidine-2,4,6(1H,3H,5H)-trione]",> 100,–,> 100,–,> 100,> 100
"N#Cc1ccc(-n2cc(C=O)c(-c3cc4ccccc4c(=O)o3)n2)cc1 [X8, 4–(4-formyl-3–(1-oxo-1H-isochromen-3-yl)-1H-pyrazol-1-yl) benzonitrile]",> 100,8.3,> 100,8,–,–
"Cc1c(-c2nn(-c3ccccc3)cc2C=C2C(=O)NC(=S)NC2=O)oc(=O)c2ccccc12 [X19, 5-((3–(4-methyl-1-oxo-1H-isochromen-3-yl)-1-phenyl-1H-pyrazol-4-yl)methylene)-2-thioxodihydropyrimidine-4,6(1H,5H)-dione]",> 100,62.8,> 100,72.3,–,–
"CC(=NNc1ccc(Cl)cc1)c1oc(=O)c2ccccc2c1C [X5, 3–(1-(2–(4-chlorophenyl) hydrazono)ethyl)-4-methyl-1H-isochromen-1-one]",> 100,5.8,> 100,2.7,–,–
"CC(=NNc1ccccc1)c1cc2ccccc2c(=O)o1 [X1, 3–(1-(2-phenylhydrazono)ethyl)-1H-isochromen-1-one]",> 100,1.9,> 100,4.3,–,–
"CC(=NNc1ccccc1)c1oc(=O)c2ccccc2c1C [X4, 4-methyl-3–(1-(2-phenylhydrazono)ethyl)-1H-isochromen-1-one]",> 100,2.3,> 100,3.9,–,–
"O=C1NC(=S)NC(=O)C1=Cc1cn(-c2ccc(Cl)cc2)nc1-c1cc2ccccc2c(=O)o1 [X17, 5-((1–(4-chlorophenyl)-3–(1-oxo-1H-isochromen-3-yl)-1H-pyrazol-4-yl)methylene)-2-thioxodihydropyrimidine-4,6(1H,5H)-dione]",> 100,–,> 100,–,> 100,> 100
"O=C1NC(=S)NC(=O)C1=Cc1cn(-c2ccccc2)nc1-c1cc2ccccc2c(=O)o1 [X16, 5-((3–(1-oxo-1H-isochromen-3-yl)-1-phenyl-1H-pyrazol-4-yl)methylene)-2-thioxodihydropyrimidine-4,6(1H,5H)-dione]",> 100,47.1,> 100,49.7,–,–
"CC(=NNc1ccc(C#N)cc1)c1cc2ccccc2c(=O)o1 [X3, 4–(2-(1–(1-oxo-1H-isochromen-3-yl)ethylidene)hydrazinyl) benzonitrile]",> 100,1.2,> 100,–,–,–
"O=C1NC(=O)C(=Cc2cn(-c3ccccc3)nc2-c2cc3ccccc3c(=O)o2)C(=O)N1 [X11, 5-((3–(1-oxo-1H-isochromen-3-yl)-1-phenyl-1H-pyrazol-4-yl)methylene) pyrimidine-2,4,6(1H,3H,5H)-trione]",> 100,41.7,> 100,46.2,–,–
